Laboratory results from patent US20210330611A1, “THERAPY FOR NEUROLOGICAL DISEASES/DISORDERS” (priority 2020, published 2021).

Key:
[1] = system: primary rat microglia; assay: Cell toxicity (dead cells, size <150 μm2) in coated fibrin (cFib) assay;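 as to Fibrin % cell toxicity: share of dead cells sized under 150 µm2 at 10 µM in fibrin-stimulated microglia HTS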
[2] = system: chronic NOD MOG35-55 EAE; assay: Chronic MOG35-55 EAE in NOD mice, clinical scores; assay type: in vivo, mouse; details: therapeutic, daily from day 80 to day 113, FIG. 8b
[3] = system: primary rat microglia; assay: Cell toxicity (dead cells, size <150 μm2) in LPS assay; details: primary microglia HTS, LPS stimulation; decreased size (<150 μm^2) as marker of toxicity
[4] = system: mouse BMDMs; assay: ROS production (DHE) in fibrin-stimulated mouse BMDMs; assay type: cell-based; details: fibrin 24 h, 5 μM inhibitor, FIG. 6b
Protocol: Bone marrow—derived macrophage cultures. […]. In brief, bone-marrow cells were isolated from tibia and femur of C57BL/6 mice, Ggt1^+/+ mice or Ggt1^dwg/dwg mice and cultured in RPMI-1640 medium supplemented with 10% FBS, 1% penicillin-streptomycin (Corning), and 10 ng/ml murine M-CSF (14-8983-80, Thermo Fisher Scientific). On days 6-7, adherent BMDMs were harvested by adding PBS with 5 mM EDTA to the plates and used for assays.
Human macrophage cultures. Human peripheral blood mononuclear cells (PBMCs) were purchased from AllCells, LLC (Alameda, Calif.). To differentiate PBMC into monocyte-derived macrophages, 2×10^6 PBMC/mL were plated in RPMI-1640 media supplemented with 10% FBS, 1% penicillin-streptomycin (Corning), and 50 ng/ml human M-CSF (300-25, Peprotech) in tissue-culture treated dishes (Corning). After 24 h, non-adherent cells were removed, and adherent cells were cultivated for 7-8 additional days at 37° C. in 5% CO2 to promote their full differentiation into macrophages. Oxidant detection with DHE. Intracellular concentrations of ROS were measured using dihydroethidium (DHE) as described (9). […] The DHE fluorescence was detected at an excitation/emission wavelength of 518 nm/605 nm using a SpectraMax M5 microplate reader (Molecular Devices) with SoftMax Pro 5.2 software (Phoenix Technologies Ltd.).

[5] = in vitro; details: rat
[6] = system: BMDMs; assay type: cell-based, mouse; details: 24 h, FIG. 12
Protocol: FIGS. 12A-E. Effects of acivicin on microglia, macrophage and whole blood cell numbers. a, Representative images showing morphology and density of primary microglia treated with vehicle or acivicin for 48 h stained with nuclei marker Hoechst or CellMask Red Whole Cell Stain. Quantification of the total number of microglia. Data are representative of one experiment with technical replicates (open symbols). b, Representative confocal images showing morphology and density of control- and acivicin-treated BMDMs treated for 24 h. Scale bar, 100 μm. Insets depict digitally zoomed in areas of regions of interest. Quantification of the total number of BMDMs in the field of view. […] Cell viability of single CD45^+ cells was assessed by Sytox blue live/dead nuclei stain. Quantification of percent cell viability of CD45^+ BMDMs treated with acivicin or left untreated. Data are from 2 independent experiments with n=4 mice per group (mean±s.d.). d, Quantification of complete blood count analysis of white blood cells (WBCs), red blood cells (RBC), platelets (PLT) (left) and composition of WBCs (right) of blood samples from healthy mice treated with saline or acivicin for 10 days. […] Quantification of total microglia cell numbers in healthy mice treated with acivicin or saline. […]

[7] = in vitro; details: rat, Cell Toxicity IC50 (uM) [cFib assay], cFib assay
[8] = system: PLP139-151 EAE in SJL/J mice; assay: Relapsing PLP139-151 EAE in SJL/J mice, clinical scores; assay type: in vivo, mouse; details: therapeutic, daily from peak of initial paralytic episode, FIG. 7c
[9] = cited from earlier work
[10] = system: 2D2 T cells; assay: Antigen-specific T-cell proliferation (BrdU, 2D2 T cells with MOG35-55-pulsed BMDMs); assay type: cell-based, mouse; details: 5, 0.5 or 0.05 μM, FIG. 14G, H
Protocol: T-cell proliferation assay. For antigen-specific T cell proliferation, näive CD4+ T cells were magnetically sorted from the TCR-transgenic 2D2 mice using naïve CD4+ T cell isolation kits (Miltenyi Biotec). […]. For non-antigen-specific T cell proliferation, naïve CD4^+ T cells were treated with acivicin and stimulated with mouse T-activator CD3/CD28 Dynabeads (Thermo Fisher Scientific) for 3 d. Cells were then fixed, permeabilized, and stained with FITC-conjugated anti-BrdU (BrdU Flow Kits, BD Biosciences).

## N[C@H](C(=O)O)[C@@H]1CC(Cl)=NO1 [Acivicin, (2S)-2-amino-2-[(5S)-3-chloro-4,5-dihydro-1,2-oxazol-5-yl] acetic acid]
[1]; <20 μM, FIG. 6a
  cell toxicity in microglia dose response: without cell toxicity
[1]; primary microglia HTS, fibrin stimulation, decreased size (<150 μm^2) as marker of toxicity
  Fibrin % cell toxicity: 2%
[2]
  progression, clinical signs: suppressed progression
[3]
  LPS % cell toxicity: 4%
[4]
  ROS generation (DHE) in mouse macrophages: decreased
[5]
  IC50: > 20 µM
[6]
  macrophage cell number in vitro: did not affect
[7]
  IC50: > 20 µM
[8]
  clinical severity during relapses: suppressed
[9]
  toxicity in anti-cancer trials: dose limiting toxicity
[10]
  encephalitogenic T cell proliferation (BrdU) with APCs: suppressed
